Our source for the IC50 values is patent US20240199587A1, “HETEROCYCLIC COMPOUNDS” (Hoffmann-La Roche Inc., priority 2021, published 2024).

The target of the assay is T1, MAGL (Homo sapiens, UniProt Q99685).
T1 sequence (Q99685 1-303): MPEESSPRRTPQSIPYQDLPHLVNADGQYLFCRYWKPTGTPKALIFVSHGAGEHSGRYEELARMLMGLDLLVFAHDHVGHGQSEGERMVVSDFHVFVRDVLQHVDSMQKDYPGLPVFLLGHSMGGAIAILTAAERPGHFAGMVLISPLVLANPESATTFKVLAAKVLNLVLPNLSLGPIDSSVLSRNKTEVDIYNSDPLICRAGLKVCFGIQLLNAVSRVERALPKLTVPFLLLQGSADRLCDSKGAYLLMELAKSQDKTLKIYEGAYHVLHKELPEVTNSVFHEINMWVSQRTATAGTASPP
The assay can be described thus: 2-AG assay (MAGL inhibitory activity, hydrolysis of 2-arachidonoylglycerol to arachidonic acid followed by mass spectrometry). It counts as biochemical. As to conditions: 8 μM 2-arachidonoylglycerol, 15 min pre-incubation, 30 min incubation at RT, RapidFire MS readout. The text has this: Compounds of formula (I) were profiled for MAGL inhibitory activity by determining the enzymatic activity by following the hydrolysis of the natural substrate 2-arachidonoylglycerol (2-AG) resulting in arachidonic acid, which can be followed by mass spectrometry. This assay is hereinafter abbreviated “2-AG assay”.
Compounds of formula (I) were profiled for MAGL inhibitory activity by determining the enzymatic activity by following the hydrolysis of the natural substrate 2-arachidonoylglycerol (2-AG) resulting in arachidonic acid, which can be followed by mass spectrometry. This assay is hereinafter abbreviated “2-AG assay”. The 2-AG assay was carried out in 384 well polypropylene assay plates. […] Compound dilutions were added to MAGL protein in assay buffer (50 mM TRIS, 1 mM EDTA, 0.01% (v/v) Tween-20, 2.5% (v/v) DMSO). After shaking, the plate was incubated for 15 min at RT. To start the reaction, 2-arachidonoylglycerol in assay buffer was added. The final concentrations in the assay was […] for MAGL protein and 8 μM 2-arachidonoylglyerol. After shaking and 30 min incubation at RT, the reaction was quenched by the addition of two assay volumes of acetonitrile containing 4 μM of d8-arachidonic acid. The amount of arachidonic acid formed was traced by an online SPE system (Agilent Rapidfire) coupled to a triple quadrupole mass spectrometer. A C18 SPE cartridge (Agilent G9205A) was used in an acetonitrile/water liquid setup. The mass spectrometer was operated in negative electrospray mode following the mass transitions 303.1→259.1 for arachidonic acid and 311.1→267.0 for d8-arachidonic acid. The activity of the compounds was calculated based on the ratio of intensities [arachidonic acid/d8-arachidonic acid].
Consider `O=C(N1C[C@H]2CC(Oc3ccc(C(F)(F)F)cc3F)C[C@H]2C1)N1CC2(CC(n3cnc(C4CC4)n3)C2)C1` (mixture of isomers) [Example 89, [6-(3-cyclopropyl-1,2,4-triazol-1-yl)-2-azaspiro[3.3]heptan-2-yl]-[rac-(3aS,6aR)-5-[2-fluoro-4-(trifluoromethyl)phenoxy]-3,3a,4,5,6,6a-hexahydro-1H-cyclopenta[c]pyrrol-2-yl]methanone], for which the IC50 came out at 2.5 nM.
To `O=C(N1C[C@H]2CC(Oc3ccc(F)cc3Cl)C[C@H]2C1)N1CC2(CC(n3cnc(C4CC4)c3)C2)C1` (mixture of isomers) [Example 91, [6-(4-cyclopropylimidazol-1-yl)-2-azaspiro[3.3]heptan-2-yl]-[rac-(3aR,6aS)-5-(2-chloro-4-fluoro-phenoxy)-3,3a,4,5,6,6a-hexahydro-1H-cyclopenta[c]pyrrol-2-yl]methanone] belongs 6.3 nM; to `O=C(N1C[C@H]2CC(Oc3ccc(F)cc3Cl)C[C@H]2C1)N1CC2(CC(n3cnc(C4CC4)n3)C2)C1` (mixture of isomers) [Example 93, [6-(3-cyclopropyl-1,2,4-triazol-1-yl)-2-azaspiro[3.3]heptan-2-yl]-[rac-(3aR,6aS)-5-(2-chloro-4-fluoro-phenoxy)-3,3a,4,5,6,6a-hexahydro-1H-cyclopenta[c]pyrrol-2-yl]methanone], 1 nM.
Compound `O=C(N1C[C@H]2CC(Oc3ccc(F)c(Cl)c3)C[C@H]2C1)N1CC2(CC(n3cnc(C4CC4)n3)C2)C1` (mixture of isomers) [Example 126, [6-(3-cyclopropyl-1,2,4-triazol-1-yl)-2-azaspiro[3.3]heptan-2-yl]-[rac-(3aS,6aR)-5-(4-fluoro-3-chloro-phenoxy)-3,3a,4,5,6,6a-hexahydro-1H-cyclopenta[c]pyrrol-2-yl]methanone] registered an IC50 of 1.5 nM.
In the case of `O=C(N1C[C@H]2CC(Oc3ccc(F)cc3Cl)C[C@H]2C1)N1CC2(CC(n3cnnc3C3CC3)C2)C1` (mixture of isomers) [Example 178, [6-(3-cyclopropyl-1,2,4-triazol-4-yl)-2-azaspiro[3.3]heptan-2-yl]−[rac-(3aS,6aR)-5-(2-chloro-4-fluoro-phenoxy)-3,3a,4,5,6,6a-hexahydro-1H-cyclopenta[c]pyrrol-2-yl]methanone], the half-inhibitory concentration (IC50) was found to be 156 nM.
The compound `O=C(N1CC(c2ccc(N3CCC(O)(C(F)(F)F)C3)nc2)C1)N1CC2(CC(n3cnc(C4CC4)n3)C2)C1` (single isomer, unassigned) [Example 214] gave an IC50 of 1.6 nM.
Take `NC(=O)C(c1ccc(F)cc1)C1CCN(C(=O)N2CC3(CC(n4cnc(C5CC5)n4)C3)C2)CC1` (single isomer, unassigned) [Example 291]: inhibition was half-maximal at 76.2 nM (IC50).
The compound `NC(=O)C(c1ccc(F)cc1)C1CCN(C(=O)N2CC3(CC(n4cnc(C5CC5)n4)C3)C2)CC1` (single isomer, unassigned) [Example 301] showed an IC50 of 97.3 nM.
Turning to `N=S(=O)(c1cccc(CC2CC3(C2)CN(C(=O)N2CC4(CC(n5cnc(C6(O)CC6)n5)C4)C2)C3)c1)C(F)(F)F` (single isomer, unassigned) [Example 406, [6-[3-(1-hydroxycyclopropyl)-1,2,4-triazol-1-yl]-2-azaspiro[3.3]heptan-2-yl]-[6-[[3-(trifluoromethyl-sulfonimidoyl)phenyl]methyl]-2-azaspiro[3.3]heptan-2-yl]methanone], the half-maximal inhibitory concentration (IC50) was found to be 1.63 nM.
In the case of `N=S(=O)(c1cccc(CC2CC3(C2)CN(C(=O)N2CC4(CC(n5cnc(C6(O)CC6)n5)C4)C2)C3)c1)C(F)(F)F` (single isomer, unassigned) [Example 407, [6-[3-(1-hydroxycyclopropyl)-1,2,4-triazol-1-yl]-2-azaspiro[3.3]heptan-2-yl]-[6-[[3-(trifluoromethyl-sulfonimidoyl)phenyl]methyl]-2-azaspiro[3.3]heptan-2-yl]methanone] it was 0.25 nM; in that of `CS(=N)(=O)c1cccc(CC2CC3(C2)CN(C(=O)N2CC4(CC(n5cnc(C6CC6)n5)C4)C2)C3)c1` (single isomer, unassigned) [Example 440, [6-(3-cyclopropyl-1,2,4-triazol-1-yl)-2-azaspiro[3.3]heptan-2-yl]-[6-[[3-(methylsulfonimidoyl)phenyl]methyl]-2-azaspiro[3.3]heptan-2-yl]methanone], 1.88 nM.
In the case of `CS(=N)(=O)c1cccc(CC2CC3(C2)CN(C(=O)N2CC4(CC(n5cnc(C6CC6)n5)C4)C2)C3)c1` (single isomer, unassigned) [Example 441, [6-(3-cyclopropyl-1,2,4-triazol-1-yl)-2-azaspiro[3.3]heptan-2-yl]-[6-[[3-(methylsulfonimidoyl)phenyl]methyl]-2-azaspiro[3.3]heptan-2-yl]methanone] it was 1.97 nM; in that of `CS(=N)(=O)c1ccc(CC2CC3(C2)CN(C(=O)N2CC4(CC(n5cnc(C6CC6)n5)C4)C2)C3)cc1` (single isomer, unassigned) [Example 442, [6-(3-cyclopropyl-1,2,4-triazol-1-yl)-2-azaspiro[3.3]heptan-2-yl]-[6-[[4-(methylsulfonimidoyl)phenyl]methyl]-2-azaspiro[3.3]heptan-2-yl]methanone], 2.22 nM.
On to `CS(=N)(=O)c1ccc(CC2CC3(C2)CN(C(=O)N2CC4(CC(n5cnc(C6CC6)n5)C4)C2)C3)cc1` (single isomer, unassigned) [Example 443, [6-(3-cyclopropyl-1,2,4-triazol-1-yl)-2-azaspiro[3.3]heptan-2-yl]-[6-[[4-(methylsulfonimidoyl)phenyl]methyl]-2-azaspiro[3.3]heptan-2-yl]methanone], for which the IC50 amounted to 4.31 nM.
Consider `NC(=O)[C@H]1CC(F)(F)CCN1c1ccc(C2CN(C(=O)N3CC4(CC(n5cnc(C6CC6)n5)C4)C3)C2)cc1` (single isomer, unassigned) [Example 493], for which the IC50 was found to be 1.28 nM.
`NC(=O)[C@H]1CC(F)(F)CCN1c1ccc(C2CN(C(=O)N3CC4(CC(n5cnc(C6CC6)n5)C4)C3)C2)cc1` (single isomer, unassigned) [Example 494] yielded an IC50 of 2.34 nM.
With `O=C(N1CC2(CC(n3cnc(C4(O)CC4)n3)C2)C1)N1CC2(CC[C@H](Cc3ncc(F)cc3F)C2)C1` (stereo in doubt) [Example 351, [6-[3-(1-hydroxycyclopropyl)-1,2,4-triazol-1-yl]-2-azaspiro[3.3]heptan-2-yl]-[(6S)-6-[(3,5-difluoro-2-pyridyl)methyl]-2-azaspiro[3.4]octan-2-yl]methanone], the IC50 is 24.7 nM.
`O=C(N1CC2(CC(n3cnc(C4(O)CC4)n3)C2)C1)N1CC2(CC[C@@H](Cc3ncc(F)cc3F)C2)C1` (stereo in doubt) [Example 352, [6-[3-(1-hydroxycyclopropyl)-1,2,4-triazol-1-yl]-2-azaspiro[3.3]heptan-2-yl]-[(6R)-6-[(3,5-difluoro-2-pyridyl)methyl]-2-azaspiro[3.4]octan-2-yl]methanone] yielded an IC50 of 4.36 nM.
In turn, `O=C(N1CC(c2ccc(N3CCC(C(F)(F)F)C3)nc2)C1)N1CC2(CC(n3cnc(C4CC4)n3)C2)C1` (stereo in doubt) [Example 480, [6-(3-cyclopropyl-1,2,4-triazol-1-yl)-2-azaspiro[3.3]heptan-2-yl]-[3-[6-[(3S)-3-(trifluoromethyl)pyrrolidin-1-yl]-3-pyridyl]azetidin-1-yl]methanone] gave an IC50 of 0.49 nM.
In the case of `O=C(N1CC(c2ccc(C3(C(F)(F)F)CC3)cc2)C1)N1CC2(CC(n3cnc(C4CC4)n3)C2)C1` [Example 1, (6-(3-cyclopropyl-1H-1,2,4-triazol-1-yl)-2-azaspiro[3.3]heptan-2-yl)(3-(4-(1-(trifluoromethyl)cyclopropyl)phenyl)azetidin-1-yl)methanone], it took 0.1 nM to reach half-maximal inhibition (IC50).
Take `O=C(N1CC(c2nc(CC3(C(F)(F)F)CC3)no2)C1)N1CC2(CC(n3cnc(C4CC4)n3)C2)C1` [Example 2, [6-(3-cyclopropyl-1,2,4-triazol-1-yl)-2-azaspiro[3.3]heptan-2-yl]-[3-[3-[[1-(trifluoromethyl)cyclo-propyl]methyl]-1,2,4-oxadiazol-5-yl]azetidin-1-yl]methanone]: the IC50 stood at 25.7 nM.
In the case of `CC(C)(C)c1nc(-c2ccc(C(=O)N3CC4(CC(n5cnc(C6CC6)n5)C4)C3)cc2)no1` [Example 3, [4-(5-tert-butyl-1,2,4-oxadiazol-3-yl)phenyl]−[6-(3-cyclopropyl-1,2,4-triazol-1-yl)-2-azaspiro[3.3]heptan-2-yl]methanone] it was 5.1 nM; in that of `CC(C)(C)c1nc(-c2ccc(C(=O)N3CC4(CC(n5cnc(C(F)(F)F)n5)C4)C3)cc2)no1` [Example 4, (4-(5-(tert-butyl)-1,2,4-oxadiazol-3-yl)phenyl)(6-(3-(trifluoromethyl)-1H-1,2,4-triazol-1-yl)-2-azaspiro[3.3]heptan-2-yl)methanone], 11.4 nM.

As a reminder, the IC50 is the concentration that gives 50% inhibition. High values mean weaker potency in that assay, low ones greater potency in that assay.
